The text below walks through data of US20220160812A1, “A PHARMACEUTICALLY ACTIVE SUBSTANCE” (Cytopharma GmbH, priority 2019, published 2022).

Entries after “also recorded” stand apart in the source; their conditions may differ. Non-standard residues stand in square brackets, D forms with d. Residues, ends and D or L forms follow the SMILES beside them.

For series [1], the system named is human peripheral blood mononuclear cells (Lymphocyte, PBMC). Kind of series: cell vitality FACS analysis (region R-1), healthy lymphocytes (PBMC). In kind it is cell-based. The note with it: Protocol A, 50, 100, 200 μM, about 24 hours per Examples (FIG. 11 legend: about 2 hours). How it is done:
Human lymphocytes are obtained as peripheral blood mononuclear cells (“PBMC”) from whole blood. For this purpose, 15 ml of heparinized whole blood (heparin tube, Sarstedt) were layered on 15 ml Biocoll in LeucoSep tubes and obtained by centrifugation (10 min at 120 g) as the top layer (“lymphocytes”) and so separated from other cells. For induction with peptides, 1×10^6 lymphocytes are seeded into each well of the 48-well plates.
After addition of the peptides diluted in culture medium to the cells (MEC-1 or lymphocytes) in the respective cavity, the cells are cultured for 2 to 4 hours at 37 degrees Celsius and 5% CO2. The cell suspension is centrifuged in centrifuge tubes at 120 g, the cells are suspended in 500 μl serum-free culture medium, then 1.5 ml of cold 80% ethanol (ethanol/PBS-80/20, v/v; stored at −20 degrees Celsius) is added, the FACS tubes sealed and stored at −20 degrees Celsius for a maximum of 18 h. The cells are centrifuged for 5 min at 120 g and suspended in 2 ml PBS, then incubated for 30 min at 37 degrees Celsius. After renewed centrifugation, the cells are suspended in 0.5 ml DAPI solution and incubated for 15 min at 20 degrees Celsius in the dark. Thereafter, the cells are stored dark for a maximum of four hours in an ice bath, then the FACS analysis.
(§1) To transfer adherent cells (A375 and BxPC-3 cells) after culture, cells are washed twice with PBS. To detach the cells, the enzyme biotase is used according to the manufacturer's instructions. For this purpose, after washing with PBS, the cells are mixed with biotase (5 ml of biotase solution per 75 cm^2 surface of the cell culture bottles) and incubated for 5 min at 37 degrees Celsius, and the biotase is separated by centrifugation. Cells cultivated in suspension (MEC-1 and lymphocytes) were transferred by dilution. The cells are suspended in culture medium and counted, each time 1.5×10^5 cells/cm^2 are seeded in 48-well plates and cultured for between 1.5 and 24 hours at 37 degrees Celsius, 5% CO2. Peptides are pre-diluted from stock solution with culture medium and 200 μl of peptide solution added so that final concentrations of 30 to 500 μM peptide are present in at most 1% (v/v) DMSO. As control solutions, culture medium without peptide (DMSO-containing) in culture medium or etoposide solution is added. After incubating the cells for several hours, the cell supernatant is transferred to a FACS tube for each batch and, after washing the cells with PBS, the wash solution is added. Then the cells are incubated with 200 μl of biotase solution for 10 min, 37° C., the cells with the biotase are also transferred to the FACS tube and the cells are collected by centrifugation for 5 min. The cell pellet is suspended in 500 μl of serum-free culture medium, then 1.5 ml of cold 80% ethanol (ethanol/PBS-80/20, v/v, stored at −20° C.) is added, the FACS tubes sealed and stored at −20 degrees Celsius for 15 to 18 h. Thereafter, the cells are centrifuged for 5 minutes at 120 g, suspended after removal of the supernatant in 2 ml PBS and incubated at 37 degrees Celsius for 30 minutes. After re-centrifugation, the cells are suspended in 0.5 ml DAPI solution and incubated for 15 min at 20 degrees Celsius in the dark. Thereafter, the cells are stored dark for a maximum of four hours in an ice bath, followed by the FACS analysis.
Changes of the cell form during cell death by apoptosis are documented in the literature (Lizard et al. 1995; Taga et al. 2000; Vermes et al., 2000). The protocols for cell cultivation, treatment and preparation of the cells before flow cytometry is detailed in separate examples. Cell suspensions of cell lines A375, BxPC-3, MEC-1 or of primary lymphocytes (see separate example of lymphocyte preparation) are analyzed by flow cytometry. The data are further analyzed by using the program “Flowing Software 2”. The data of light scattering are drawn in a two-dimensional FSC/SSC plot. […]
Background: Flow cytometry measures light scatter and fluorescence of single cells or particles in a stream.

The next series has as its system A375 melanoma cells. The series can be described thus: cell vitality FACS analysis (region R-1, FSC/SSC), A375 melanoma cells. In kind it is cell-based, human. Particulars: A375, Protocol A, about 24 hours, FIG. 7. How it is done: as §1
For suspension cells (MEC-1 and lymphocytes/PBMC) and for adherent cells analyzed according to Protocol A, FACS analysis to determine subG1 cell cycle and vital cell fractions was done on a Becton Dickinson LSR Fortessa flow cytometer. The analysis by FACS including subG1 and vital cell analysis according to protocol B was performed with a Cytomics FC 500 MPL flow cytometer from Beckman Coulter.
Changes of the cell form during cell death by apoptosis are documented in the literature (Lizard et al. 1995; Taga et al. 2000; Vermes et al., 2000). The protocols for cell cultivation, treatment and preparation of the cells before flow cytometry is detailed in separate examples. Cell suspensions of cell lines A375, BxPC-3, MEC-1 or of primary lymphocytes (see separate example of lymphocyte preparation) are analyzed by flow cytometry. The data are further analyzed by using the program “Flowing Software 2”. The data of light scattering are drawn in a two-dimensional FSC/SSC plot. Since the position in the FSC/SSC plot of apoptotic cells changes relative to non-apoptotic cells (Vermes et al., 2000), a region (R-1) is drawn representing mainly non-apoptotic cells and excluding cells with both low FSC and low SSC values and excluding cells with high values of FSC and/or SSC (FIG. 1). The regions are individually selected for each cell type (A375, BxPC-3, MEC-1 and primary lymphocytes). The percentage of untreated non-apoptotic cells in the region R-1 relative to total cells is set to 100%, representing 100% vital cells. The fraction (%) of cells in R-1 relative to the total number of cells in case of cell treatment by certain peptides or by cytotoxic drugs results in cell vitality, below 100%, thereby indicating a loss of cell vitality by the treatment. […]

Consider `CSCC[C@@H](NC(=O)[C@@H](Cc1c[nH]c2ccccc12)NC(=O)[C@@H](CCCCN)NC(=O)[C@H](N)CCCCN)C(=O)N[C@@H](C(=O)N[C@@H](C(=O)N[C@H](Cc1ccc(O)cc1)C(=O)N[C@H](Cc1ccccc1)C(=O)N[C@H](CCCNC(=N)N)C(=O)O)C(C)C)C(C)C` [SEQID No 25, k-k-w-m-v-v-y-f-r] (H-[dK][dK][dW][dM][dV][dV][dY][dF][dR]-OH; N-terminus and C-terminus assumed), for which the “tolerance by healthy Lymphocyte (PBMC) cells (cell vitality)” value (“tolerance by healthy Lymphocyte” below) in series [1] is given as “not so well tolerated by the healthy cells”. Same read-out and setting: under `CSCC[C@@H](NC(=O)[C@@H](Cc1c[nH]c2ccccc12)NC(=O)[C@H](N)CCCCN)C(=O)N[C@@H](C(=O)N[C@@H](C(=O)N[C@H](Cc1ccc(O)cc1)C(=O)N[C@H](Cc1ccccc1)C(=O)N[C@H](CCCNC(=N)N)C(=O)N[C@H](CCCCN)C(=O)O)C(C)C)C(C)C` [SEQID No 26, k-w-m-v-v-y-f-r-k] (H-[dK][dW][dM][dV][dV][dY][dF][dR][dK]-OH; N-terminus and C-terminus assumed) stands “not so well tolerated by the healthy cells”; under `CSCC[C@@H](NC(=O)[C@@H](Cc1c[nH]c2ccccc12)NC(=O)[C@@H](CCCCN)NC(=O)[C@H](N)CCCCN)C(=O)N[C@@H](C(=O)N[C@@H](C(=O)N[C@H](Cc1ccc(O)cc1)C(=O)N[C@H](Cc1ccccc1)C(=O)N[C@H](CCCNC(=N)N)C(=O)N[C@H](CCCCN)C(=O)O)C(C)C)C(C)C` [SEQID No 27, k-k-w-m-v-v-y-f-r-k] (H-[dK][dK][dW][dM][dV][dV][dY][dF][dR][dK]-OH; N-terminus and C-terminus assumed), “not remarkably damaged; also recorded: very good tolerated by the healthy cells (low toxic effect)”. For the compound `CSCC[C@@H](NC(=O)[C@@H](Cc1c[nH]c2ccccc12)NC(=O)[C@@H](CCCCN)NC(=O)[C@H](N)CCCCN)C(=O)N[C@@H](C(=O)N[C@@H](C(=O)N[C@H](Cc1ccc(O)cc1)C(=O)N[C@H](Cc1ccccc1)C(=O)N[C@H](CCCNC(=N)N)C(=O)N[C@H](CCCCN)C(=O)N[C@H](CO)C(=O)N[C@H](CO)C(=O)N[C@H](CCCNC(=N)N)C(=O)O)C(C)C)C(C)C` [SEQID No 30, k-k-w-m-v-v-y-f-r-k-s-s-r] (H-[dK][dK][dW][dM][dV][dV][dY][dF][dR][dK][dS][dS][dR]-OH; N-terminus and C-terminus assumed), the results for the “tolerance by healthy Lymphocyte” value in series [1] and in series [1] (listed as SEQID NO 30) were “well tolerated” and “not remarkably damaged”, respectively. With `CSCC[C@@H](NC(=O)[C@@H](Cc1c[nH]c2ccccc12)NC(=O)[C@@H](CCCCN)NC(=O)[C@@H](CCCCN)NC(=O)[C@@H](CO)NC(=O)[C@@H](CCCNC(=N)N)NC(=O)[C@H](N)CCC(=O)O)C(=O)N[C@@H](C(=O)N[C@@H](C(=O)N[C@H](Cc1ccc(O)cc1)C(=O)N[C@H](Cc1ccccc1)C(=O)N[C@H](CCCNC(=N)N)C(=O)N[C@H](CCCCN)C(=O)O)C(C)C)C(C)C` [SEQID No 31, e-r-s-k-k-w-m-v-v-y-f-r-k] (H-[dE][dR][dS][dK][dK][dW][dM][dV][dV][dY][dF][dR][dK]-OH; N-terminus and C-terminus assumed), the “tolerance by healthy Lymphocyte” value in series [1] is listed as “not remarkably damaged”. Still for that read-out and setting: under `CSCC[C@@H](NC(=O)[C@@H](Cc1c[nH]c2ccccc12)NC(=O)[C@@H](CCCCN)NC(=O)[C@H](N)CCCCN)C(=O)N[C@@H](C(=O)N[C@@H](C(=O)N[C@H](Cc1ccc(O)cc1)C(=O)N[C@H](Cc1ccccc1)C(=O)N[C@H](CCCNC(=N)N)C(=O)N[C@H](CCCCN)C(=O)N[C@H](CCC(=O)O)C(=O)N[C@H](C)C(=O)N[C@H](CCCNC(=N)N)C(=O)O)C(C)C)C(C)C` [SEQID No 32, k-k-w-m-v-v-y-f-r-k-e-a-r] (H-[dK][dK][dW][dM][dV][dV][dY][dF][dR][dK][dE][dA][dR]-OH; N-terminus and C-terminus assumed) stands “not remarkably damaged”; under `CSCC[C@@H](NC(=O)[C@@H](Cc1c[nH]c2ccccc12)NC(=O)[C@@H](CCCCN)NC(=O)[C@@H](CCCCN)NC(=O)[C@H](NC(=O)[C@@H](CO)NC(=O)[C@H](N)CCCNC(=N)N)[C@H](C)O)C(=O)N[C@@H](C(=O)N[C@@H](C(=O)N[C@H](Cc1ccc(O)cc1)C(=O)N[C@H](Cc1ccccc1)C(=O)N[C@H](CCCNC(=N)N)C(=O)N[C@H](CCCCN)C(=O)O)C(C)C)C(C)C` [SEQID No 33, r-s-t-k-k-w-m-v-v-y-f-r-k] (H-[dR][dS][dT][dK][dK][dW][dM][dV][dV][dY][dF][dR][dK]-OH; N-terminus and C-terminus assumed), “not remarkably damaged; also recorded: well tolerated”. d-k-w-m-v-v-y-f-r-d [SEQID No 39]: the “decrease of cell vitality, comparison in words” value in the series with A375 melanoma cells (100 μM) is reported as “higher apoptosis rate at a concentration of 100 μM as peptide SEQID NO 27”; in the series on A375 melanoma cells (any concentration (100, 200, 500 μM)), “significantly greater decrease than the peptide of the prior art (Peptide SEQ C1)”.
